Test [1] concerns the target T1, MET (Homo sapiens, UniProt P08581). The experiment in a line: Test B: Inhibition of autophosphorylation of MET; ELISA technique (pppY1230,1234,1235) in MKN45 cells. Type of test: cell-based. More on the design: Inoculated MKN45 cells in 96-well plates; endogenous in cells; host or cells: MKN45 cells. The conditions noted are these: 1 hour treatment, phosphoMET ELISA. The protocol: B) Test B: Inhibition of autophosphorylation of MET; ELISA technique (pppY1230,1234,1235)
a) Cell lysates: Inoculated MKN45 cells in 96-well plates (Cell coat BD polylysine) to a rate of 20 000 cells/well in 200 μl in RPMI medium+10% FCS+1% L-glutamine. Leave to adhere for 24 hours in an incubator.
The cells are treated the day after inoculation with the products at six concentrations in duplicate for 1 hour. At least three control wells are treated with the same amount of final DMSO.
Product dilution: Stock at 10 mM in pure DMSO—range from 10 mM to 30 μM with an increment of 3 in pure DMSO—Intermediate 50-fold dilutions in the culture medium, followed by removal of 10 μl added directly to the cells (200 μl): final range from 10 000 to 30 nM.
At the end of incubation, delicately remove the supernatant and rinse with 200 μl of PBS. Next, place 100 μl of lysis buffer directly in the wells on ice and incubate at 4° C. for 30 minutes. Lysis buffer: 10 mM Tris-HCl pH 7.4, 100 mM NaCl, 1 mM EDTA, 1 mM EGTA, 1% Triton X-100, 10% glycerol, 0.1% SDS, 0.5% deoxycholate, 20 mM NaF, 2 mM Na3VO4, 1 mM PMSF and anti-protease cocktail.
The 100 μl of lysates are transferred into a V-bottomed polypropylene plate and ELISA is performed directly or the plate is frozen at −80° C.,
b) ELISA PhosphoMET SicSource Kit KH00281
Add 70 μl of kit dilution buffer+30 μL of cell lysates or 30 μl of lysis buffer for the blanks to each well of the kit plate. Incubate for 2 hours with gentle rocking at room temperature.
Rinse the wells four times with 400 μl of kit washing buffer. Incubate with 100 μl of anti-phospho MET antibody for 1 hour at room temperature.
Rinse the wells four times with 400 μL of kit washing buffer. Incubate with 100 μl of anti-rabbit HRP antibody for 30 minutes at room temperature (except for the wells with chromogen alone).
Rinse the wells four times with 400 μl of kit washing buffer. Introduce 100 μl of chromogen and incubate for 30 minutes in the dark at room temperature.
Stop the reaction with 100 μl of stop solution. Take the reading without delay, at […] 0.1 second on a Wallac Victor plate reader.
Target sequence in this assay (P08581 25-1390): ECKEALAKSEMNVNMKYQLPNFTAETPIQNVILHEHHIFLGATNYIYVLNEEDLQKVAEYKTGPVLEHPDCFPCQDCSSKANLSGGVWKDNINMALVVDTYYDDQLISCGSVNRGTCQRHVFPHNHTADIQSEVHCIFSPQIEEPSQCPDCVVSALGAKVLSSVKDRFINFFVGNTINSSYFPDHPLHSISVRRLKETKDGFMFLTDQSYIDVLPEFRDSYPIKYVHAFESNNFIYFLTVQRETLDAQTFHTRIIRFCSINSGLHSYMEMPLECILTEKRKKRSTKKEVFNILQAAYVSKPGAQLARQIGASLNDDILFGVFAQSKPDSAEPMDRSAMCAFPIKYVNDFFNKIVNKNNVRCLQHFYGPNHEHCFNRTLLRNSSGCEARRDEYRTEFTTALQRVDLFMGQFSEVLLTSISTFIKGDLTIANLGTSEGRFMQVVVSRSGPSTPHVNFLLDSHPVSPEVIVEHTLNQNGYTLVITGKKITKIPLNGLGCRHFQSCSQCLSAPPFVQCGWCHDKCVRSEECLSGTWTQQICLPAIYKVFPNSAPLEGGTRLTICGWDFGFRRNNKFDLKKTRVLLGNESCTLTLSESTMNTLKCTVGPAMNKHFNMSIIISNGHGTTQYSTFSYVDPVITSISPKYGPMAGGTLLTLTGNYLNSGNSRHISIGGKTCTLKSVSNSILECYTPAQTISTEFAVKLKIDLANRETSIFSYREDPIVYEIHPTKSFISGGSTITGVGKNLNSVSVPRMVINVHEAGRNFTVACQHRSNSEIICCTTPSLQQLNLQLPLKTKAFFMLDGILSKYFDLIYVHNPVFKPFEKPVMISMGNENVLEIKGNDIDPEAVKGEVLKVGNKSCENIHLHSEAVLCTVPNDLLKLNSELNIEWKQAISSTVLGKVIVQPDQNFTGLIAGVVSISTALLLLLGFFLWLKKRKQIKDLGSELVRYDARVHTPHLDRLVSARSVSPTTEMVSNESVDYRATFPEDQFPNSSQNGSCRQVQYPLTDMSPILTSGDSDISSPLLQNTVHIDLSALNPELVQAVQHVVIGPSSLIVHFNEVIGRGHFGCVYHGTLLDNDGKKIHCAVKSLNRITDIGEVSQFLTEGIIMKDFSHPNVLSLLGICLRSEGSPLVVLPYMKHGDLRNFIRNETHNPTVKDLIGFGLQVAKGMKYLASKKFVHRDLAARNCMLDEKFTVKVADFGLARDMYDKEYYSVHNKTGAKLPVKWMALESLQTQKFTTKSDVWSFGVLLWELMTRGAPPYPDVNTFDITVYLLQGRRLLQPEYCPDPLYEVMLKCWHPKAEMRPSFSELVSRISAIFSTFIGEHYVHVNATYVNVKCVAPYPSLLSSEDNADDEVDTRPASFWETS

The target in test [2] is T1, MET. Briefly: Test A: HTRF MET test in 96-well format. Type of test: biochemical. Details: The recombinant DNA His-Tev-MET (956-1390) in pFastBac; His (N, cleaved yes); TEV cleavage site (N); made in house; host or cells: SF21 insect cells (baculovirus, pFastBac). The conditions noted are these: ATP 10 μM, MET 5 nM. Here is the method: The recombinant DNA His-Tev-MET (956-1390) in pFastBac (invitrogen) is transfected into insect cells and, after several viral amplification steps, the final baculovirus stock is tested for expression of the protein of interest.
For the production of autophosphorylated protein, the preceding fractions are incubated for 1 hour at room temperature after addition of ATP 2 mM, MgCl2 2 mM, and Na3VO4 4 mM. After stopping the reaction with 5 mM of EDTA, the reaction mixture is injected onto a HiPrep desalting column (GE HealthCare) pre-equilibrated with buffer A+Na3VO4 4 mM, and the fractions containing the protein of interest (SDS PAGE analysis) are pooled and stored at −80° C. The degree of phosphorylation is checked by mass spectrometry (LC-MS) and by peptide mapping.
A) Test A: HTRF MET test in 96-well format
In a final volume of 50 μl of enzymatic reaction, MET 5 nM final is incubated in the presence of the test molecule (for a final concentration range of 0.17 nM to 10 μM, DMSO 3% final) in MOPS 10 mM pH 7.4, DTT 1 mM, 0.01% Tween 20 buffer. The reaction is initiated with the substrate solution to obtain final concentrations of poly-(GAT) 1 μg/ml, ATP 10 μM and MgCl2 5 mM. After incubation for 10 minutes at room temperature, the reaction is stopped with a mix of 30 μl to obtain a final solution of Hepes 50 mM pH 7.5, potassium fluoride 500 mM, 0.1% BSA and EDTA 133 mM in the presence of 80 ng of streptavidin 61SAXLB Cis-Bio Int. and 18 ng of anti-phosphotyrosine Mab PT66-Europium Cryptate per well. After incubation for 2 hours at room temperature, the reading is taken at two wavelengths, 620 nm and 665 nm, on a reader for the TRACE/HTRF technique and the percentage of inhibition is calculated from the 665/620 ratios.
Target sequence in this assay (P08581 956-1390): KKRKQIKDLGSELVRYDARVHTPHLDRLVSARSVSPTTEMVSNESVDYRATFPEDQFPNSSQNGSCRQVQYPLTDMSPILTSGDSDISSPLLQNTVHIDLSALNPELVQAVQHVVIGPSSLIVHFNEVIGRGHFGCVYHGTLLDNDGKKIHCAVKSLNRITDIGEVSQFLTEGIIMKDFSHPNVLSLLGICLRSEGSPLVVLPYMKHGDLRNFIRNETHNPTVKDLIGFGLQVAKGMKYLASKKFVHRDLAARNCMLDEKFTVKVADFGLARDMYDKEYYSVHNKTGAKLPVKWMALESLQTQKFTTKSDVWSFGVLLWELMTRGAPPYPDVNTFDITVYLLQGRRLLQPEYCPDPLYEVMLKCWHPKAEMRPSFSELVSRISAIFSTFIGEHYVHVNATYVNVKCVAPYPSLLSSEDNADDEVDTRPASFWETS

Test [3] has as its system HCT116 cells and MKN45 cells. Briefly: Test C: Measurement of the cell proliferation via a 14C-thymidine pulse. Type of test: cell-based. The conditions noted are these: 14C-thymidine incorporation, 96 hours of treatment; cell line (HCT116 or MKN45) not stated. Here is the method: C) Test C: Measurement of the Cell Proliferation Via a 14C-Thymidine Pulse
The cells are inoculated in Cytostar 96-well plates in 180 μl for 4 hours at 37° C. and 5% CO2: HCT116 cells at a rate of 2500 cells per well in DMEM medium+10% foetal calf serum+1% L-Glutamine and MKN45 cells at a rate of 7500 cells per well in RPMI medium+10% foetal calf serum+1% L-Glutamine. After these 4 hours of incubation, the products are added in 10 μl as a 20-fold concentrated solution according to the dilution method cited for ELISA. The products are tested at 10 concentrations in duplicate from 10 000 nM to 0.3 nM with an increment of 3.
After 72 hours of treatment, add 10 μl of 14C-thymidine at 10 μCi/ml to obtain 0.1 μCi per well. The incorporation of 14C-thymidine is measured on a Micro-Beta machine (Perkin-Elmer) after 24 hours of pulse and 96 hours of treatment.
All the test steps are automated on BIOMEK 2000 or TECAN stations.
(Incorporation of labelled thymidine or its analogues reports DNA synthesis.)

Molecules are shown by their SMILES.

For `CCOc1ccc2nnc(Sc3cc4sc(NC(=O)CN5CCN(CC)CC5)nc4cc3F)n2n1` [Example 9, N-{6-[(6-ethoxy[1,2,4]triazolo[4,3-b]pyridazin-3-yl)sulfanyl]-5-fluoro-1,3-benzothiazol-2-yl}-2-(4-ethylpiperazin-1-yl)acetamide], the IC50 (as a rule, the concentration at which inhibition is half-maximal) against MET [1] was less than 100 nM; on MET [2] it was less than 100 nM; in test [3], less than 1000 nM.

With `O=C(NCCN1CCOCC1)Nc1nc2cc(F)c(Sc3nnc4ccc(NC5CC5)nn34)cc2s1` [Example 5, 1-(6-{[6-(cyclopropylamino)[1,2,4]triazolo[4,3-b]pyridazin-3-yl]sulfanyl}-5-fluoro-1,3-benzothiazol-2-yl)-3-[2-(morpholin-4-yl)ethyl]urea], the results for the IC50 (against MET [1]; on MET [2]; in test [3]) were less than 100 nM, less than 100 nM and less than 1000 nM, respectively.

Regarding `O=C(NCCN1CCOCC1)Nc1nc2cc(F)c(Sc3nnc4ccc(NC5CCCCC5)nn34)cc2s1` [Example 6, 1-(6-{[6-(cyclohexylamino)[1,2,4]triazolo[4,3-b]pyridazin-3-yl]sulfanyl}-5-fluoro-1,3-benzothiazol-2-yl)-3-[2-(morpholin-4-yl)ethyl]urea], the values for the IC50 (at MET [1]; at MET [2]; in test [3]) were less than 100 nM, less than 100 nM and less than 1000 nM, respectively.

With `CCOc1ccc2nnc(Sc3cc4sc(NC(=O)CN5CCN(C6CC6)CC5)nc4cc3F)n2n1` [Example 7, 2-(4-cyclopropylpiperazin-1-yl)-N-{6-[(6-ethoxy[1,2,4]triazolo[4,3-b]pyridazin-3-yl)sulfanyl]-5-fluoro-1,3-benzothiazol-2-yl}acetamide], the values for the IC50 (on MET [1]; on MET [2]; in test [3]) were less than 100 nM, less than 100 nM and less than 1000 nM, respectively.

Turning to `CC(C)(C)OC(=O)Nc1nc2cc(F)c(Sc3nnc4ccc(-c5ccc(F)cc5)nn34)cc2s1` [Example 2, 2-Methylpropan-2-yl (5-fluoro-6-{[6-(4-fluorophenyl)[1,2,4]triazolo[4,3-b]pyridazin-3-yl]sulfanyl}-1,3-benzothiazol-2-yl)carbamate], the IC50 on MET [1] was less than 100 nM; at MET [2], less than 100 nM; in test [3], less than 1000 nM.

As to `CCN1CCN(CC(=O)Nc2nc3cc(F)c(Sc4nnc5ccc(OC6CCC6)nn45)cc3s2)CC1` [Example 10, N-(6-{[6-(Cyclobutyloxy)[1,2,4]triazolo[4,3-b]pyridazin-3-yl]sulfanyl}-5-fluoro-1,3-benzothiazol-2-yl)-2-(4-ethylpiperazin-1-yl)acetamide], the values for the half-inhibitory concentration (IC50) (on MET [1]; at MET [2]; in test [3]) were less than 100 nM, less than 100 nM and less than 1000 nM, respectively.

As to `O=C(CN1CCN(C2CC2)CC1)Nc1nc2cc(F)c(Sc3nnc4ccc(OC5COC5)nn34)cc2s1` [Example 11, 2-(4-cyclopropylpiperazin-1-yl)-N-(5-fluoro-6-{[6-(oxetan-3-yl-oxy)[1,2,4]triazolo[4,3-b]pyridazin-3-yl]sulfanyl}-1,3-benzothiazol-2-yl)acetamide], the IC50 against MET [1] and at MET [2] was less than 500 nM each time.

Regarding `O=C(NCCN1CCOCC1)Nc1nc2cc(F)c(Sc3nnc4ccc(OC5CCCCC5)nn34)cc2s1` [Example 1, 1-(6-{[6-(Cyclohexyloxy)[1,2,4]triazolo[4,3-b]pyridazin-3-yl]sulfanyl}-5-fluoro-1,3-benzothiazol-2-yl)-3-[2-(morpholin-4-yl)ethyl]urea], the IC50 was less than 100 nM against MET [1], less than 100 nM at MET [2] and less than 1000 nM in test [3].

For the compound `O=C(NCCN1CCOCC1)Nc1nc2cc(F)c(Sc3nnc4ccc(-c5ccc(F)cc5)nn34)cc2s1` [Example 4, 1-(5-fluoro-6-{[6-(4-fluorophenyl)[1,2,4]triazolo[4,3-b]pyridazin-3-yl]sulfanyl}-1,3-benzothiazol-2-yl)-3-[2-(morpholin-4-yl)ethyl]urea], the IC50 against MET [1] is less than 100 nM; at MET [2], less than 100 nM; in test [3], less than 1000 nM.

As for `Nc1nc2cc(F)c(Sc3nnc4ccc(-c5ccc(F)cc5)nn34)cc2s1` [Example 3, 5-fluoro-6-{[6-(4-fluorophenyl)[1,2,4]triazolo[4,3-b]pyridazin-3-yl]sulfanyl}-1,3-benzothiazol-2-amine], the IC50 against MET [1] was less than 100 nM; on MET [2], less than 100 nM; in test [3] it was less than 1000 nM.

On to `O=C(CN1CCN(C2CC2)CC1)Nc1nc2cc(F)c(Sc3nnc4ccc(OC5CCC5)nn34)cc2s1` [Example 8, N-(6-{[6-(cyclobutyloxy)[1,2,4]triazolo[4,3-b]pyridazin-3-yl]sulfanyl}-5-fluoro-1,3-benzothiazol-2-yl)-2-(4-cyclopropylpiperazin-1-yl)acetamide], for which the IC50 is less than 100 nM at MET [1], less than 100 nM at MET [2] and less than 1000 nM in test [3].

(Values after patent publication US20120165326A1, “DERIVATIVES OF 6-(6-SUBSTITUTED-TRIAZOLOPYRIDAZINE-SULFANYL) 5-FLUORO BENZOTHIAZOLES AND 5-FLUORO BENZIMIDAZOLES, PREPARATION THEREOF, USE THEREOF AS DRUGS, AND USE THEREOF AS MET INHIBITORS” (SANOFI, priority 2009, published 2012).)
